Reference: article PMC6143625, “A high throughput screen for next-generation leads targeting malaria parasite transmission” (Nature Communications, 2018)

Columns and labels:
HepG2 human cells = test system: HepG2 human cells; parameters: method as in http://dx.doi.org/10.6019/CHEMBL3507680; details: ref http://dx.doi.org/10.6019/CHEMBL3507680; cited from earlier work
[1] = test system: P. falciparum 3D7 asexual blood stages; assay: Whole-cell time extended asexual growth assay (pLDH); type: cell-based; details: Plasmodium falciparum, 72 h; for IC50: dose response retest, read-out: IC50 (µM) Asex stages; for inhibition at 2 µM: primary screen, read-out: %Inh Asex stages @2uM
Procedure: Asexual activity was assayed via Plasmodium lactate dehydrogenase activity (pLDH), a surrogate of asexual parasite growth. […] 2 µM artesunate and DMSO were used as the positive and negative controls, respectively. […] After plate mixing, NBT reduction was measured by absorbance at 650 nm using Envision (Perkin Elmer).

Compound	%Inh HepG2 @10uM (HepG2 human cells) [%]	IC50 [1] [µM]	inhibition at 2 µM [1] [%]
c1cncc(-c2ccc3c(c2)CCC32CCNCC2)c1 [DDD01031368]	17.78	3.86	38.8
Cc1nnc(N2CC[C@@H](OCC3CC3)[C@@H](Cc3ccccc3)C2)s1.O=C(O)C(F)(F)F [DDD01032950]	-7.86	2.17	45.4
CN(Cc1ccco1)C[C@H]1OC[C@@H]2CCN(Cc3ccccn3)C[C@@H]21.O=C(O)C(F)(F)F.O=C(O)C(F)(F)F.O=C(O)C(F)(F)F [DDD01033585]	-8.48	2.59	41
COc1ccc(N2CCCC3(C2)CN(c2nncs2)CCO3)cc1 (stereo not drawn) [DDD01034473]	1.09	1.48	87.8
COc1cccc(C2SCC(=O)Nc3ccsc32)c1OC (stereo not drawn) [DDD01034924]	1.70	5.19	33.1
Cc1[nH]/c(=N\C(=O)c2csc(NC3CCCC3)n2)sc1C [DDD01035522]	31.16	5.98	32.6
I.c1ccc(Sc2ccc3c(c2)OCO3)c(CNC2=NCCN2)c1 [DDD01035544]	-0.79	3.12	30.4
CC(C)c1nnc2ccc(N3CCC(C(=O)Nc4nccs4)CC3)nn12 [DDD01036018]	10.73	9.35	30.4
O=C(Nc1cnn(COc2ccc(F)cc2Cl)c1)C1CC1 [DDD01037427]	9.89	3.65	46.4
CCN(CC)c1nc(Nc2cccc(C(C)O)c2)nc2ccccc12 (stereo not drawn) [DDD01037966]	65.01	1.88	44.9
CC(O)c1cccc(Nc2nc(NCCO)c3ccccc3n2)c1 (stereo not drawn) [DDD01037968]	-5.65	1.67	41.9
Oc1ccc(Cl)cc1CNCc1ccccc1Cl [DDD01038243]	-8.63	2.29	49.1
Oc1ccc(Cl)cc1CNCc1cccc(C(F)(F)F)c1 [DDD01038245]	-12.90	1.69	52.7
Cc1ccccc1CNCc1cc(Cl)ccc1O [DDD01038246]	-11.50	1.52	53.9
COc1cccc(CNCc2cccc(Cl)c2)c1O [DDD01038248]	-4.96	3.16	33.1
COc1cccc(CNCc2ccc(F)c(Cl)c2)c1O [DDD01038250]	27.04	1.59	68.7
COCCCNC(=O)c1cc(C(C)C)nc(N2CCCCCC2)n1 [DDD01038653]	-8.22	6.14	40.6
Cc1nn(C)c(C)c1CCn1cncc1-c1ccc2c(c1)CC(C)N2C.Cl (stereo not drawn) [DDD01056530]	4.43	3.8	51
Cc1cccc(C)c1Nc1noc2c1CN(C(=O)c1ccnn1C)CC2 [DDD01056796]	69.80	1.46	68.6
Cc1cccc(C)c1Nc1noc2c1CN(C(=O)c1cn(C)cn1)CC2 [DDD01056797]	75.15	1.55	81.2
Cc1cccc(C)c1Nc1noc2c1CN(C(=O)c1ccn(C)n1)CC2 [DDD01057030]	46.43	2	47.3
CCCNc1cc(-c2c[nH]nc2C2CCN(C(=O)C3CCC3)C2)ccn1 (stereo not drawn) [DDD01057089]	96.64	1.85	43.4
Cl.NC1CCc2nc(-c3cccnc3)nc(Nc3ccc(F)cc3)c2C1 (stereo not drawn) [DDD01057099]	3.41	1.37	68.5
CC(C)Nc1cc(-c2c[nH]nc2C2CCN(C(=O)C3CC3)C2)ccn1 (stereo not drawn) [DDD01057305]	96.71	5.06	30.6
CC(C)CNc1cc(-c2c[nH]nc2C2CCN(C(=O)C3CC3)C2)ccn1 (stereo not drawn) [DDD01057306]	95.13	3.78	35.1
CC(C)Nc1cc(-c2c[nH]nc2C2CCN(C(=O)C3CCC3)C2)ccn1 (stereo not drawn) [DDD01057307]	95.83	2.39	36.2
CCOc1ccc(CN2CCCC(c3cc4ncccc4[nH]3)C2)cc1 (stereo not drawn) [DDD01057418]	6.95	1.67	91.8
COCC(=O)N1CCCC(c2nc(N(C)C)ncc2-c2ccccc2)C1 (stereo not drawn) [DDD01057962]	4.41	5.84	42.5
